The text below walks through data of ChEMBL document CHEMBL1150715, “Puupehenone, a cytotoxic metabolite from a deep water marine sponge, Stronglyophora hartmani” (J Nat Prod, 1987).

Converted amounts (≈) assume the structure as drawn.

Experiment [1] relates to P388. Nature of the experiment: Cytotoxicity against mouse P388 cells. The format is functional, cell-based.
Another experiment has as its system A549. As to the kind of experiment: Cytotoxicity against human A549 cells. The format is functional, cell-based.
In the next experiment the test system is HCT-8. As to the kind of experiment: Cytotoxicity against human HCT8 cells. The format is functional, cell-based.
In a further experiment the test system is MCF7. Nature of the experiment: Cytotoxicity against human MCF7 cells. The class given is functional, cell-based.
In experiment [2] the test system is P388. Nature of the experiment: In vivo cytotoxicity against mouse P388 cells at 25 mg/kg administered daily for 9 days relative to control. The class given is functional.
The test system of a further experiment is Candida albicans. As to the kind of experiment: Antifungal activity against Candida albicans. The format is functional.

For `CC1(C)CCC[C@]2(C)[C@H]3C=C4C=C(O)C(=O)C=C4O[C@@]3(C)CC[C@@H]12` [PUUPEHENONE], the IC50 in the experiment on P388 [1] came out at 1 µg/mL (≈ 3.04 µM); in the experiment on A549, 0.1 µg/mL (≈ 0.304 µM); with HCT-8 it was 1 µg/mL (≈ 3.04 µM); in the experiment on MCF7, 0.1 µg/mL (≈ 0.304 µM). For the same compound, in the experiment with P388 [2], the T/C is given as 119%. Besides, the MIC in the experiment on Candida albicans was found to be 3 µg/mL (≈ 9.13 µM).
